Results on five compounds are retold here after BindingDB's records for doi:10.1021/jm00348a007 (1982).

Assay [1] has as its target Thymidine kinase 2, mitochondrial (rat). In words: Non-competitive inhibition against rat mitochondrial thymidine kinase.
Assay [2] has the same target. In words: Noncompetitive inhibition against rat mitochondrial thymidine kinase.
Assay [3] shares this target. In words: Competitive inhibition against rat Mitochondrial thymidine kinase.
The target is the same in assay [4]. The description is as above. This is another data set of the same source.

As to `Cc1cn(C2CC(O)C(CSCCCC(=O)O)O2)c(=O)[nH]c1=O` (stereo not given) [4-[3-Hydroxy-5-(5-methyl-2,4-dioxo-3,4-dihydro-2H-pyrimidin-1-yl)-tetrahydro-furan-2-ylmethylsulfanyl]-butyric acid], the Ki (as a rule, the dissociation constant of the complex between target and ligand, obtained from inhibition or displacement) in assay [1] is 8500 µM.
In assay [2], `Nc1nc(=O)n([C@H]2C[C@H](O)[C@@H](CO)O2)cc1I` [4-Amino-1-(4-hydroxy-5-hydroxymethyl-tetrahydro-furan-2-yl)-5-iodo-1H-pyrimidin-2-one] returned a Ki of 3500 µM.
In assay [3], `Cc1cn([C@H]2C[C@H](O)[C@@H](CO)O2)c(=O)nc1N` [4-Amino-1-(4-hydroxy-5-hydroxymethyl-tetrahydro-furan-2-yl)-5-methyl-1H-pyrimidin-2-one] gave a Ki of 1300 µM.
For the compound `C/C=C/c1cn([C@H]2C[C@H](O)[C@@H](CO)O2)c(=O)[nH]c1=O` [1-(4-Hydroxy-5-hydroxymethyl-tetrahydro-furan-2-yl)-5-propenyl-1H-pyrimidine-2,4-dione(BVDU)], in assay [1], the Ki is 510 µM.
In assay [4], `CCO[C@H]1C[C@H](n2cc(C)c(=O)[nH]c2=O)O[C@@H]1CO` [1-(4-Ethoxy-5-hydroxymethyl-tetrahydro-furan-2-yl)-5-methyl-1H-pyrimidine-2,4-dione] gave a Ki of 56 µM.
